Experimental data: US20220289715A1, “PESTICIDALLY ACTIVE PYRAZINE-AMIDE COMPOUNDS” (priority 2019, published 2022)

Legend:
Assay type in all cases: in vivo
[1] = tested on: Diabrotica balteata (Corn Root Worm); experiment: Example B1: Diabrotica balteata, spray on maize sprouts; conditions: 96 h, application rate of 200 ppm, L2 larvae, 4 days after infestation, read-out: control in at least one of the two categories (mortality or growth inhibition)
Method in brief: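 Maize sprouts on agar were sprayed with aqueous dilutions of DMSO stock solutions, dried, then infested with L2 larvae (6–10 per well). Mortality and growth inhibition were scored against untreated controls 4 days after infestation; test rate 200 ppm.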

[2] = tested on: Euschistus heros (Neotropical Brown Stink Bug); experiment: Example B2: Euschistus heros, spray on soybean leaves; conditions: 120 h, application rate of 200 ppm, N2 nymphs, 5 days after infestation, read-out: control in at least one of the two categories (mortality or growth inhibition)
Method: Example B2: Euschistus heros (Neotropical Brown Stink Bug)
Soybean leaves on agar in 24-well microtiter plates were sprayed with aqueous test solutions prepared from 10,000 ppm DMSO stock solutions. After drying the leaves were infested with N2 nymphs. The samples were assessed for mortality and growth inhibition in comparison to untreated samples 5 days after infestation.
The following compounds gave an effect of at least 80% control in at least one of the two categories (mortality or growth inhibition) at an application rate of 200 ppm: […]

[3] = tested on: Chilo suppressalis (Striped Rice Stemborer); experiment: Example B3: Chilo suppressalis, artificial diet; conditions: 144 h, application rate of 200 ppm, L2 larvae, 6 days after infestation, read-out: control in at least one of the three categories (mortality, anti-feedant effect, or growth inhibition)
Method in brief: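 Artificial diet was treated with aqueous dilutions made from 10,000 ppm DMSO stocks, dried, and infested with L2 larvae (6-8 per well). After 6 days, mortality, anti-feeding effect and growth inhibition were scored against untreated samples. Control was recorded when any one category exceeded the untreated sample.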

[4] = tested on: Plutella xylostella (Diamond Back Moth); experiment: Example B4: Plutella xylostella, artificial diet, 24-well; conditions: 192 h, application rate of 200 ppm, eggs, 8 days after infestation, read-out: control in at least one of the two categories (mortality or growth inhibition)
Method in brief: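 Artificial diet in 24-well plates treated with aqueous dilutions of DMSO stocks, dried, then infested with diamondback moth eggs. Mortality and growth inhibition scored against untreated samples 8 days after infestation.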

[5] = tested on: Myzus persicae (Green Peach Aphid); experiment: Example B5: Myzus persicae, intrinsic activity; conditions: 120 h, test rate of 12 ppm, 5 days after infestation
Description: Example B5: Myzus persicae (Green Peach Aphid). Intrinsic Activity
Test compounds prepared from 10,000 ppm DMSO stock solutions were applied by pipette into 24-well microtiter plates and mixed with sucrose solution. The plates were closed with a stretched Parafilm. A plastic stencil with 24 holes was placed onto the plate and infested pea seedlings were placed directly on the Parafilm. The infested plate was closed with a gel blotting paper and another plastic stencil and then turned upside down. The samples were assessed for mortality 5 days after infestation.

[6] = tested on: Spodoptera littoralis (Egyptian Cotton Leaf Worm); experiment: Example B6: Spodoptera littoralis, spray on cotton leaf discs; conditions: foliar, 72 h, application rate of 200 ppm, L1 larvae, 3 days after infestation, read-out: control in at least one of the three categories (mortality, anti-feedant effect, or growth inhibition)
Method in brief: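 Leaf discs on agar sprayed with aqueous solutions made from 10,000 ppm DMSO stocks, then infested after drying with five L1 larvae. Mortality, anti-feeding and growth inhibition scored against untreated samples 3 days after infestation.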

[7] = tested on: Spodoptera littoralis (Egyptian Cotton Leaf Worm); experiment: Example B7: Spodoptera littoralis, uptake by lettuce roots from agar; conditions: 144 h, test rate of 12.5 ppm, absorbed by lettuce roots, eggs, 6 days after infestation, read-out: control in at least one of the three categories (mortality, anti-feeding, or growth inhibition)
Description: Example B7: Spodoptera littoralis (Egyptian Cotton Leaf Worm)
Test compounds were applied by pipette from 10,000 ppm DMSO stock solutions into 24-well plates and mixed with agar. Lettuce seeds were placed onto the agar and the multi well plate was closed by another plate which contained also agar. After 7 days the compound was absorbed by the roots and the lettuce grew into the lid plate. The lettuce leaves were then cut off into the lid plate. Spodoptera eggs were pipetted through a plastic stencil onto a humid gel blotting paper and the lid plate was closed with it. The samples were assessed for mortality, anti-feedant effect and growth inhibition in comparison to untreated samples 6 days after infestation.
The following compounds gave an effect of at least 80% control in at least one of the three categories (mortality, anti-feeding, or growth inhibition) at a test rate of 12.5 ppm: […]

[8] = tested on: Plutella xylostella (Diamondback Moth); experiment: Example B9: Plutella xylostella, artificial diet, 96-well; conditions: 216 h, application rate of 500 ppm, eggs/L1 larvae, 9 days after infestation
Method in brief: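 Test solutions made from 10,000 ppm DMSO stocks were applied to artificial diet in 96-well plates. After drying, ~30 eggs per well were placed on a suspended netted lid so hatching L1 larvae dropped onto the diet. Mortality was scored 9 days after infestation.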

[9] = tested on: Myzus persicae (Green Peach Aphid); experiment: Example B10: Myzus persicae, sucrose solution, 96-well; conditions: 120 h, application rate of 50 ppm, 5 days after infestation
Description: Example B10: Myzus persicae (Green Peach Aphid)
Test compounds prepared from 10,000 ppm DMSO stock solutions were applied by a liquid handling robot into 96-well microtiter plates and mixed with a sucrose solution. Parafilm was stretched over the 96-well microtiter plate and a plastic stencil with 96 holes was placed onto the plate. Aphids were sieved into the wells directly onto the Parafilm. The infested plates were closed with a gel blotting card and a second plastic stencil and then turned upside down. The samples were assessed for mortality 5 days after infestation.

[10] = tested on: Tetranychus urticae (Two-Spotted Spider Mite); experiment: Example B8: Tetranychus urticae, feeding/contact activity; conditions: 192 h
Method: Example B8: Tetranychus urticae (Two-Spotted Spider Mite): Feeding/Contact Activity
Bean leaf discs on agar in 24-well microtiter plates were sprayed with aqueous test solutions prepared from 10,000 ppm DMSO stock solutions. After drying the leaf discs were infested with a mite population of mixed ages. The samples were assessed for mortality on mixed population (mobile stages) 8 days after infestation.

C[C@H](NC(=O)c1cc(OC(F)F)cc(C(F)(F)F)c1)c1nccnc1-n1nccn1 [Compound P39, 3-(difluoromethoxy)-N-[(1S)-1-[3-(triazol-2-yl)pyrazin-2-yl]ethyl]-5-(trifluoromethyl)benzamide]
≥ 80%: percent control (mortality or growth inhibition) at 200 ppm [1] | percent control (mortality or growth inhibition) at 200 ppm [2] | percent control (mortality, anti-feedant effect or growth inhibition) at 200 ppm [3] | percent control (mortality or growth inhibition) at 200 ppm [4] | mortality at 12 ppm [5] | percent control (mortality, anti-feedant effect or growth inhibition) at 200 ppm [6] | percent control (mortality, anti-feeding or growth inhibition) at 12.5 ppm [7]

CC(NC(=O)c1cc(C(F)(F)F)cc(C2(C#N)CC2)c1)c1nccnc1-n1nccn1 (centres unmarked) [Compound P16, 3-(1-cyanocyclopropyl)-N-[1-[3-(triazol-2-yl)pyrazin-2-yl]ethyl]-5-(trifluoromethyl)benzamide]
≥ 80%: percent control (mortality or growth inhibition) at 200 ppm [1] | percent control (mortality or growth inhibition) at 200 ppm [2] | percent control (mortality, anti-feedant effect or growth inhibition) at 200 ppm [3] | percent control (mortality or growth inhibition) at 200 ppm [4] | mortality at 12 ppm [5] | percent control (mortality, anti-feedant effect or growth inhibition) at 200 ppm [6] | mortality at 500 ppm [8] | mortality at 50 ppm [9]

CC(NC(=O)c1cc(Cl)cc(Br)c1)c1nccnc1-n1nccn1 (centres unmarked) [Compound P35, 3-bromo-5-chloro-N-[1-[3-(triazol-2-yl)pyrazin-2-yl]ethyl]benzamide]
≥ 80%: percent control (mortality or growth inhibition) at 200 ppm [1] | percent control (mortality, anti-feedant effect or growth inhibition) at 200 ppm [3] | percent control (mortality or growth inhibition) at 200 ppm [4] | percent control (mortality, anti-feedant effect or growth inhibition) at 200 ppm [6] | mortality at 200 ppm [10] | mortality at 500 ppm [8] | mortality at 50 ppm [9]

CC(NC(=O)c1cc(OCC(F)F)cc(C(F)(F)F)c1)c1nccnc1-n1nccn1 (centres unmarked) [Compound P12, 3-(2,2-difluoroethoxy)-N-[1-[3-(triazol-2-yl)pyrazin-2-yl]ethyl]-5-(trifluoromethyl)benzamide]
≥ 80%: percent control (mortality or growth inhibition) at 200 ppm [2] | percent control (mortality, anti-feedant effect or growth inhibition) at 200 ppm [3] | percent control (mortality or growth inhibition) at 200 ppm [4] | mortality at 12 ppm [5] | percent control (mortality, anti-feedant effect or growth inhibition) at 200 ppm [6] | percent control (mortality, anti-feeding or growth inhibition) at 12.5 ppm [7] | mortality at 500 ppm [8] | mortality at 50 ppm [9]

CC(NC(=O)c1cc(C(F)(F)F)cc(C(C)(C)C#N)c1)c1nccnc1-n1nccn1 (centres unmarked) [Compound P6, 3-(1-cyano-1-methyl-ethyl)-N-[1-[3-(triazol-2-yl)pyrazin-2-yl]ethyl]-5-(trifluoromethyl)benzamide]
≥ 80%: percent control (mortality or growth inhibition) at 200 ppm [1] | percent control (mortality or growth inhibition) at 200 ppm [2] | percent control (mortality, anti-feedant effect or growth inhibition) at 200 ppm [3] | percent control (mortality or growth inhibition) at 200 ppm [4] | mortality at 12 ppm [5] | percent control (mortality, anti-feedant effect or growth inhibition) at 200 ppm [6] | mortality at 500 ppm [8] | mortality at 50 ppm [9]
